The target in experiment [1] is Acetylcholinesterase (Electrophorus electricus) (UniProt O42275). Put plainly: The compound was tested in vitro for the inhibition of acetylcholinesterase (AChE) isolated from electric eel at 10e-5 M; NA means no significant activity at 10e-3 M.
Experiment [2] has as its target GABA-A receptor; anion channel. Nature of the experiment: Displacement of [3H]flunitrazepam from GABA-A benzodiazepine receptor (BZR) of rat brain membranes (NA = no significant activity). In kind it is cell membranes, Membrane. On the technique in general: In a radioligand displacement assay an active substance lowers the binding of a labelled ligand.
Experiment [3] concerns the target Acetylcholinesterase (Electrophorus electricus) (UniProt O42275). Nature of the experiment: The compound was tested in vitro for the inhibition of acetylcholinesterase (AChE) isolated from electric eel at 10e-6 M; NA means no significant activity at 10e-3 M.
Experiment [4] has the same target. Put plainly: The compound was tested in vitro for the inhibition of acetylcholinesterase (AChE) isolated from electric eel at 10e-5 M.
Experiment [5] has as its system GABA-A receptor; anion channel. Nature of the experiment: Displacement of [3H]flunitrazepam from GABA-A benzodiazepine receptor (BZR) of rat brain membranes (NA = no significant activity at 10e-3 M). The class given is cell membranes, Membrane.
Experiment [6] deals with Acetylcholinesterase (Electrophorus electricus) (UniProt O42275). Nature of the experiment: The compound was tested in vitro for the inhibition of acetylcholinesterase (AChE) isolated from electric eel at 10e-6 M.
For experiment [7], the target named is GABA-A receptor; anion channel. Nature of the experiment: Displacement of [3H]flunitrazepam from GABA-A benzodiazepine receptor (BZR) of rat brain membranes. In kind it is cell membranes, Membrane.
In experiment [8] the target is Muscarinic acetylcholine receptor. Nature of the experiment: The compound was tested in vitro for its binding affinity to muscarinic receptor on rat brain membrane by competitive binding assay using [3H]-QNB.

By inhibition is commonly meant the change of the read-out against control, counted positive when it falls. In general, pKi refers to the negative decadic logarithm of the Ki, by convention in mol/L. Read a low pKi as a high Ki. In general, Ki refers to a dissociation constant, usually derived from enzyme kinetics or from competition with a known ligand. High values mean lower affinity, low ones higher affinity.

pKi: −log10 of the molar value. Activity calls are given as the source filed them. The rule behind the calls is not given here.

Chain of Acetylcholinesterase (Electrophorus electricus) (O42275 24-633 limits assumed): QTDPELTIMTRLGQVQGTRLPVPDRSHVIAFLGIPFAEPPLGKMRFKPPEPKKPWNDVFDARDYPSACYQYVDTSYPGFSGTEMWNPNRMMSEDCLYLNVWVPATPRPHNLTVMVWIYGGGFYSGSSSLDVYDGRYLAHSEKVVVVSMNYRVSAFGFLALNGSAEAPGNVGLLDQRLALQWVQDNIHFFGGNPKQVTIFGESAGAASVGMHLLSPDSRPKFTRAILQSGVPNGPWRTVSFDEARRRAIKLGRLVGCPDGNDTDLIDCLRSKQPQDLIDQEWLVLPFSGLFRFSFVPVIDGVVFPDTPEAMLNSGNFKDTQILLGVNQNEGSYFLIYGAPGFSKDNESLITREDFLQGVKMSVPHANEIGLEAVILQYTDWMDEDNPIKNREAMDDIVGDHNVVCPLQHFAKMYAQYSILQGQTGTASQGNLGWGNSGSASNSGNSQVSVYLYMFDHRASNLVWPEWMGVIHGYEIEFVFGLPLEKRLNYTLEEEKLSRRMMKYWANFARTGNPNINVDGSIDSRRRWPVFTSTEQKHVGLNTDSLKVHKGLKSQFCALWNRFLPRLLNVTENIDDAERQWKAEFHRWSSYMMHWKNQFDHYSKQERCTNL

On to `COC(=O)c1cc2c(cn1)[nH]c1ccccc12` [BETA-CCM], for which the inhibition entry in experiment [1] and in experiment [3] was “inactive” in each case. The pKi in experiment [2] is 8.52.

`CCOC(=O)c1cc2cc[nH]c2c[n+]1C.[I-]`: the inhibition in experiment [4] stood at 17%; in experiment [6], 4%. Besides, the Ki entry in experiment [5] is reported as “Not Active”.

Take `CNC(=O)c1cc2c(c[n+]1C)[nH]c1ccccc12.[I-]`: the inhibition turned out to be 7.4% in experiment [4] and 1.3% in experiment [6]. Moreover, the pKi in experiment [7] is 6.22. This compound also gave a Ki in experiment [8] of 27000 nM.

On to `COC(=O)c1cc2c(c[n+]1C)[nH]c1ccccc12`, for which the inhibition in experiment [4] stood at 43.1%; in experiment [6], 7.2%. The pKi in experiment [7] was 5.85. This compound also came in with a Ki in experiment [8] of 3100 nM.

In the case of `CCCCOC(=O)c1cc2c(c[n+]1C)[nH]c1ccccc12.[I-]`, the inhibition in experiment [4] is 88%; in experiment [6] it was 46%. The compound further showed a pKi in experiment [7] of 5.34. This compound displayed a Ki in experiment [8] of 500 nM.

With `CCCOC(=O)c1cc2c(c[n+]1C)[nH]c1ccccc12.[I-]`, the inhibition in experiment [4] was 80.1%; in experiment [6], 34.9%. The compound also showed a pKi in experiment [7] of 6.22. The same compound returned a Ki in experiment [8] of 1000 nM.

Regarding `C[n+]1ccc2c(c1)[nH]c1ccccc12` [NORMELINONINE F], the inhibition in experiment [4] came to 41.2%; in experiment [6], 7.6%. Also, the Ki result in experiment [5] was “Not Active”.

For the compound `CCOC(=O)c1cc2c(c[n+]1C)[nH]c1ccccc12.[I-]`, the inhibition stood at 60.9% in experiment [4] and 13.7% in experiment [6]. The compound further gave a pKi in experiment [7] of 5.49. Also, the Ki in experiment [8] is 700 nM.

For `CN(C)C(=O)Oc1ccc[n+](C)c1`, the inhibition in experiment [4] was determined as 93%; in experiment [6], 59%.

Turning to `CC(C)OC(=O)c1cc2c(c[n+]1C)[nH]c1ccccc12.[I-]`, the inhibition is 62% in experiment [4] and 14% in experiment [6]. In experiment [7], the pKi is 5.39. In experiment [8], the Ki worked out at 500 nM.

(Values after ChEMBL document CHEMBL1127171, “N-2 methylated quaternary derivatives of -carboline-3-carboxylates inhibit acetylcholinesterase in vitro” (Bioorg Med Chem Lett, 1993).)
